Measured values published in patent publication US20260216149A1, “USE OF DIAZAPHENANTHRENE PROTONATED DIMER” (XI’AN LIZE TECHNOLOGY PROJECT INVESTMENT CO., LTD., priority 2023, published 2026).

Columns and labels:
L. monocytogenes = test: Tests for MIC and MBC; format: cell-based, Listeria monocytogenes; settings: unit assumed; for MIC: 12 h culture, absorbance 600 nm; for MBC: subculture further 12 h
C. albicans = test: Tests for MIC and MFC; format: cell-based, Candida albicans; settings: unit assumed; for MIC: 12 h culture, absorbance 600 nm; for MFC: subculture further 12 h
S. aureus = settings: 12 h culture, absorbance 600 nm
S. mutans = test: Tests for MIC and MBC; format: cell-based, Streptococcus mutans; settings: unit assumed; for MIC: 12 h culture, absorbance 600 nm; for MBC: subculture further 12 h
P. fluorescens = test: Tests for MIC and MBC; format: cell-based, Pseudomonas fluorescens; settings: unit assumed; for MIC: 12 h culture, absorbance 600 nm; for MBC: subculture further 12 h
B. subtilis = test: Tests for MIC and MBC; format: cell-based, Bacillus subtilis; settings: unit assumed; for MIC: 12 h culture, absorbance 600 nm; for MBC: subculture further 12 h
K. pneumoniae = test: Tests for MIC and MBC; format: cell-based, Klebsiella pneumoniae; settings: unit assumed; for MIC: 12 h culture, absorbance 600 nm; for MBC: subculture further 12 h
A. flavus = test: Tests for MIC and MFC; format: cell-based, Aspergillus flavus; settings: unit assumed; for MIC: 12 h culture, absorbance 600 nm; for MFC: subculture further 12 h
Y. enterocolitis = test: Tests for MIC and MBC; format: cell-based, Yersinia enterocolitis; settings: unit assumed; for MIC: 12 h culture, absorbance 600 nm; for MBC: subculture further 12 h
S. bovis = test: Tests for MIC and MBC; format: cell-based, Streptococcus bovis; settings: unit assumed; for MIC: 12 h culture, absorbance 600 nm; for MBC: subculture further 12 h
P. vulgaris = test: Tests for MIC and MBC; format: cell-based, Proteus vulgaris; settings: unit assumed; for MIC: 12 h culture, absorbance 600 nm; for MBC: subculture further 12 h
S. epidermidis = test: Tests for MIC and MBC; format: cell-based, Staphylococcus epidermidis; settings: unit assumed; for MIC: 12 h culture, absorbance 600 nm; for MBC: subculture further 12 h
P. aeruginosa = test: Tests for MIC and MBC; format: cell-based, Pseudomonas aeruginosa; settings: unit assumed; for MIC: 12 h culture, absorbance 600 nm; for MBC: subculture further 12 h
C. perfringens = settings: 12 h culture, absorbance 600 nm
M. furfur = test: Tests for MIC and MFC; format: cell-based, Malassezia furfur; settings: unit assumed; for MIC: 12 h culture, absorbance 600 nm; for MFC: subculture further 12 h
S. enteritidis = test: Tests for MIC and MBC; format: cell-based, Salmonella enteritidis; settings: unit assumed; for MIC: 12 h culture, absorbance 600 nm; for MBC: subculture further 12 h
M. globosa = test: Tests for MIC and MFC; format: cell-based, Malassezia globosa; settings: unit assumed; for MIC: 12 h culture, absorbance 600 nm; for MFC: subculture further 12 h
S. thermophilus = test: Tests for MIC and MBC; format: cell-based, Streptococcus thermophilus; settings: unit assumed; for MIC: 12 h culture, absorbance 600 nm; for MBC: subculture further 12 h
E. coli = settings: 12 h culture, absorbance 600 nm
S. lactis = test: Tests for MIC and MBC; format: cell-based, Streptococcus lactis; settings: unit assumed; for MIC: 12 h culture, absorbance 600 nm; for MBC: subculture further 12 h
A. niger = test: Tests for MIC and MFC; format: cell-based, Aspergillus niger; settings: unit assumed; for MIC: 12 h culture, absorbance 600 nm; for MFC: subculture further 12 h
H. staphylococcus = test: Tests for MIC and MBC; format: cell-based, hemolytic staphylococcus; settings: unit assumed; for MIC: 12 h culture, absorbance 600 nm; for MBC: subculture further 12 h
T. rubrum = test: Tests for MIC and MFC; format: cell-based, Trichophyton rubrum; settings: unit assumed; for MIC: 12 h culture, absorbance 600 nm; for MFC: subculture further 12 h
E. faecalis = test: Tests for MIC and MBC; format: cell-based, Enterococcus faecalis; settings: unit assumed; for MIC: 12 h culture, absorbance 600 nm; for MBC: subculture further 12 h
B. cereus = test: Tests for MIC and MBC; format: cell-based, Bacillus cereus; settings: unit assumed; for MIC: 12 h culture, absorbance 600 nm; for MBC: subculture further 12 h
C. diphtheriae = settings: 12 h culture, absorbance 600 nm
C. neoformans = test: Tests for MIC and MFC; format: cell-based, Cryptococcus neoformans; settings: unit assumed; for MIC: 12 h culture, absorbance 600 nm; for MFC: subculture further 12 h
[1] = test system: Human lung adenocarcinoma A549 cell line; test: IC50 determination (CCK-8); format: cell-based; settings: A549, DMEM HG, treated 8 h
Protocol: (§1) The cells were washed with PBS (pH 7.4), added with a CCK-8 solution (Beijing Beyotime Biotechnology) to each well according to the instructions, and then incubated for 4 h.

[2] = test system: Mouse melanoma B16 cell line; test: IC50 determination (CCK-8); format: cell-based; settings: B16, RPMI 1640, treated 8 h
Protocol: as §1

[3] = test system: Human neuroglioma U521MG cell Line; test: IC50 determination (CCK-8); format: cell-based; settings: DMEM HG, treated 8 h
Protocol: as §1

[4] = test system: Human neuroblastoma SH-SY5Y cell line; test: IC50 determination (CCK-8); format: cell-based; settings: DMEM/F12, treated 8 h
Protocol: as §1

[5] = test system: Mouse liver cancer H22 cell line; test: IC50 determination (CCK-8); format: cell-based; settings: H22, RPMI 1640, treated 8 h
Protocol: as §1

Cryptococcus neoformans = test: Test for Cryptococcus-infected mice; format: in vivo; settings: Example 1 2, 4, 8 mg/kg iv, fluconazole 8 mg/kg ip

## F[Si-2](F)(F)(F)(F)F.c1cnc2c(c1)ccc1ccc[nH+]c12.c1cnc2c(c1)ccc1ccc[nH+]c12.c1cnc2c(c1)ccc1cccnc12.c1cnc2c(c1)ccc1cccnc12 [Example 2]
L. monocytogenes
  MIC: 0.3 µg/mL
  MBC: 1.2 µg/mL
C. albicans
  MIC: 0.4 µg/mL
  MFC: 8 µg/mL
S. aureus
  MIC: 0.4
S. mutans
  MIC: 0.8 µg/mL
  MBC: 4 µg/mL
P. fluorescens
  MIC: 0.4 µg/mL
  MBC: 3 µg/mL
B. subtilis
  MIC: 0.6 µg/mL
  MBC: 2.5 µg/mL
K. pneumoniae
  MIC: 0.8 µg/mL
  MBC: 5 µg/mL
A. flavus
  MIC: 0.4 µg/mL
  MFC: 6 µg/mL
Y. enterocolitis
  MIC: 0.4 µg/mL
  MBC: 2 µg/mL
S. bovis
  MIC: 0.6 µg/mL
  MBC: 2 µg/mL
P. vulgaris
  MIC: 0.8 µg/mL
  MBC: 4 µg/mL
S. epidermidis
  MIC: 0.4 µg/mL
  MBC: 2.5 µg/mL
P. aeruginosa
  MIC: 0.4 µg/mL
  MBC: 2 µg/mL
C. perfringens
  MIC: 2.5
M. furfur
  MIC: 1 µg/mL
  MFC: 6 µg/mL
S. enteritidis
  MIC: 0.8 µg/mL
  MBC: 4 µg/mL
M. globosa
  MIC: 2 µg/mL
  MFC: 10 µg/mL
S. thermophilus
  MIC: 0.8 µg/mL
  MBC: 4 µg/mL
E. coli
  MIC: 0.4
S. lactis
  MIC: 1.2 µg/mL
  MBC: 4 µg/mL
A. niger
  MIC: 0.4 µg/mL
  MFC: 4 µg/mL
H. staphylococcus
  MIC: 0.2 µg/mL
  MBC: 0.5 µg/mL
T. rubrum
  MIC: 1.6 µg/mL
  MFC: 10 µg/mL
E. faecalis
  MIC: 6 µg/mL
  MBC: 20 µg/mL
B. cereus
  MIC: 2 µg/mL
  MBC: 6 µg/mL
C. diphtheriae
  MIC: 1.6
C. neoformans
  MIC: 0.4 µg/mL
  MFC: 5 µg/mL

## O=S(=O)(O)O.c1cnc2c(c1)ccc1cccnc12.c1cnc2c(c1)ccc1cccnc12.c1cnc2c(c1)ccc1cccnc12.c1cnc2c(c1)ccc1cccnc12 [Example 3]
L. monocytogenes
  MIC: 0.3 µg/mL
  MBC: 1.5 µg/mL
C. albicans
  MIC: 0.5 µg/mL
  MFC: 9 µg/mL
S. aureus
  MIC: 0.5
S. mutans
  MIC: 1 µg/mL
  MBC: 5 µg/mL
P. fluorescens
  MIC: 0.5 µg/mL
  MBC: 3 µg/mL
B. subtilis
  MIC: 0.6 µg/mL
  MBC: 3 µg/mL
K. pneumoniae
  MIC: 1 µg/mL
  MBC: 6 µg/mL
A. flavus
  MIC: 0.5 µg/mL
  MFC: 6 µg/mL
Y. enterocolitis
  MIC: 0.5 µg/mL
  MBC: 3 µg/mL
S. bovis
  MIC: 0.8 µg/mL
  MBC: 3 µg/mL
P. vulgaris
  MIC: 1 µg/mL
  MBC: 6 µg/mL
S. epidermidis
  MIC: 0.5 µg/mL
  MBC: 3 µg/mL
P. aeruginosa
  MIC: 0.5 µg/mL
  MBC: 3 µg/mL
C. perfringens
  MIC: 3
M. furfur
  MIC: 1 µg/mL
  MFC: 6 µg/mL
S. enteritidis
  MIC: 1 µg/mL
  MBC: 5 µg/mL
M. globosa
  MIC: 2 µg/mL
  MFC: 12 µg/mL
S. thermophilus
  MIC: 1 µg/mL
  MBC: 5 µg/mL
E. coli
  MIC: 0.5
S. lactis
  MIC: 1.5 µg/mL
  MBC: 6 µg/mL
A. niger
  MIC: 0.5 µg/mL
  MFC: 6 µg/mL
H. staphylococcus
  MIC: 0.2 µg/mL
  MBC: 0.6 µg/mL
T. rubrum
  MIC: 2 µg/mL
  MFC: 12 µg/mL
E. faecalis
  MIC: 8 µg/mL
  MBC: 30 µg/mL
B. cereus
  MIC: 2 µg/mL
  MBC: 9 µg/mL
C. diphtheriae
  MIC: 2
C. neoformans
  MIC: 0.5 µg/mL
  MFC: 6 µg/mL

## F[P-](F)(F)(F)(F)F.O=[N+]([O-])c1cc2ccc[nH+]c2c2ncccc12.O=[N+]([O-])c1cc2cccnc2c2ncccc12 [Example 7]
[1]
  IC50: 320 µM
[2]
  IC50: 320 µM
[3]
  IC50: 320 µM
[4]
  IC50: 32 µM
[5]
  IC50: 320 µM
B. cereus
  MIC: 0.5 µg/mL
  MBC: 4 µg/mL

## OC(Cn1cncn1)(Cn1cncn1)c1ccc(F)cc1F [fluconazole]
Cryptococcus neoformans
  pathological symptoms of brains and lungs (cerebral edema, pneumonia): pathological symptoms were improved
Cryptococcus neoformans; once a day for 9 days
  Cryptococcus-infected symptoms and weight: the symptoms were improved, and the weight gained
